Entries after “also recorded” stand apart in the source; their conditions may differ.
Experiments:
Format in all cases: in vivo
[1] = cataleptic effect in rats (intraperitoneal); details: for TD50 at 6 h: recorded every 30 minutes over 6 hours, read-out: ED50 (dose at which 50% of the animals are cataleptic)
Procedure: The following compounds were tested:
The test animals are considered to be cataleptic when the homolateral extremities remain in the crossed position for at least 10 seconds. The number of cataleptic animals is recorded every 30 minutes over a 6-hour period.

[2] = "Pole Climbing" Test, conditioned reaction and unconditioned reaction of rats; details: for ED50: Rattus norvegicus, po, read-out: ED50 (Blocking of the conditioned reaction); for Quotient-ED10 (Blocking of the unconditioned reaction)/ED50 (Blocking of the conditioned reaction): higher quotient = stronger selectivity of the neuroleptic effect
Description: The test provides information regarding the behavioral reactions of rats. Rats are trained to avoid an electrical stimulus (unconditioned stimulation) which is effected through a base grid a few seconds after an acoustical signal (conditioned stimulation) by climbing up a vertical rod in the test chamber. The blocking of the conditioned reaction is expressed by the parameter ED50 (mg/kg. p.o.), the blocking of the unconditioned reaction is expressed by the parameter ED10 (mg/kg. p.o.).

[3] = system: turnover of dopamine in the basal ganglions; experiment: Determination of Homovanillinic Acid (HVA) in rat brain; details: rats; for Increase in HVA, %: two hours, titer in untreated rats set at 100%
Description: […] Thereafter, the homovanillinic acid is extracted from the supernatant portion of a homogenized mixture of the brains of the treated rats into butyl acetate and later into an aqueous solution and is oxidized with potassium ferric cyanide to a fluorescent dimer. […] The homovanillinic acid titer in untreated rats is arbitrarily set at 100%.

[4] = Rotating Rod Test (coordinated motor performance of mice); details: for ED50: Mus musculus, po, read-out: ED50 (dose which reduces the holding on period of the mice by 50%); for activity in the Rotating Rod Test (in words): compared with chlorpromazine
Procedure: In the Rotating Rod Test, the ability of mice to achieve a coordinated motor performance is investigated. After peroral administration of the test substance, the mice are placed upon a horizontal slowly rotating rod and the time they remain […] the rod is recorded.

[5] = rat, in vivo, ip, rats, intraperitoneal
[6] = rats, intraperitoneal, as compared to chlorpromazine

| SMILES | cataleptic effect (in words) ([1]; rat, in vivo, ip) | ED50 [2] [mg/kg] | Quotient-ED10 (Blocking of the unconditioned reaction)/ED50 (Blocking of the conditioned reaction) ([2]; rats, p.o.) | Increase in HVA, % ([3]; 20 mg/kg p.o.) [%] | ED50 [4] [mg/kg] | TD50 at 6 h [1, 5] [mg/kg] | cataleptic effect (in words) [1, 6] | ED50 ([2]; rats, p.o.) [mg/kg] | quality (selectivity) of the neuroleptic activity relative to chlorpromazine (in words) ([2]; rats, p.o.) | strength of the neuroleptic activity relative to chlorpromazine (in words) ([2]; rats, p.o.) | activity in the HVA test relative to chlorpromazine (in words) [3] | Increase in HVA, % ([3]; 50 mg/kg p.o.) [%] | ED50 ([4]; mice, peroral) [mg/kg] | activity in the Rotating Rod Test (in words) ([4]; mice, peroral, maleate) | activity in the Rotating Rod Test (in words) ([4]; mice, peroral) |
| --- | --- | --- | --- | --- | --- | --- | --- | --- | --- | --- | --- | --- | --- | --- | --- |
| CN(C)CCCN1c2ccccc2Sc2ccc(Cl)cc21 [Chlorpromazine, chlorpromazine, reference compound] | does demonstrate cataleptic effects | 11.6 | 3.5 | 321 | 5 | – | – | – | – | – | – | – | – | – | – |
| CN1CCN(C2Cc3cc(Cl)ccc3Sc3cc(F)ccc32)CC1.O=C(O)/C=C\C(=O)O (stereo not drawn) [Product A, 1-(2-chloro-7-fluoro-10,11-dihydro-dibenzo[b,f]thiepin-10-yl)-4-methylpiperazine maleate] | – | – | 3.3 | – | – | 70 | only very weak cataleptic effect | 30 | about equal to that of chlorpromazine | about half that of chlorpromazine | nearly as potent as that of chlorpromazine | 280 | 5.8 | strong activity; also recorded: activity approximates that of chlorpromazine | – |
| CN1CCN(C2Cc3ccc(Cl)cc3Sc3ccc(F)cc32)CC1.O=C(O)/C=C\C(=O)O (stereo not drawn) [Product B, 1-(3-chloro-8-fluoro-10,11-dihydro-dibenzo[b,f]thiepin-10-yl)-4-methylpiperazine maleate] | – | – | 11.0 | – | – | 100 | only very weak cataleptic effect | 27 | considerably superior to that of chlorpromazine | about half of that of chlorpromazine | – | – | 3.1 | – | superior to chlorpromazine |
| O=C(O)/C=C\C(=O)O.OCCCN1CCN(C2Cc3cc(Cl)ccc3Sc3ccc(F)cc32)CC1 (stereo not drawn) [Product C, 4-(2-chloro-8-fluoro-10,11-dihydro-dibenzo[b,f]thiepin-10-yl)-1-piperazinepropanol maleate] | – | – | – | – | – | 64 | only very weak cataleptic effect | – | – | – | nearly as potent as that of chlorpromazine | 273 | – | – | – |
